Values quoted from earlier work as cited in patent US11759418B1, “Composition for treating wounds, dermatitis, inflammation, and irritation” (Chrism Products, Inc., priority 2016, dated 2023).
Like-named read-outs stand apart in the source and are kept apart here.

Columns and labels:
wound healing process = conditions: results from histological analyses
[1] = chemically synthesized bulk allantoin

Concentration (5% Glycerin in water, 20° C.) | Concentration (50% Isopropanol in water, 25° C.) | Concentration (Ethanol, 20° C.) | Concentration (Propylene glycol, 25° C.) | Concentration (Water, 20° C.) | Concentration (Water, 75° C.) | Compound | concentration producing mild skin irritation (skin; clinical studies, dermal use) | concentration safe for dermal use (skin; in vivo) | effect on wound healing process (wound healing process) | safety / toxicity [1]
 |  |  |  |  |  | benzyl-dimethyl-tridecylazanium [Benzalkonium Chloride] | ≥ 5% | up to 0.5% |  | 
ca 0.8% | ca. 0.3% | ca. 0.1% | ca. 0.3% | ca. 0.4% | ca. 4.0% | NC(=O)NC1NC(=O)NC1=O (stereo not shown) [Allantoin, 5-ureidohydantoin] |  |  | benefits the wound healing process | safe, non-toxic
